Measured values reported in ChEMBL document CHEMBL1145267, “Antioxidant and antiproliferative activity of curcumin semicarbazone” (2005).

What was measured:
Type in all cases: functional
[1] = tested on: MCF7; experiment: Compound tested for percent viability of human MCF-7 cell line at 1 mg/mL concentration after 24 hrs by MTT method
[2] = organism: Rattus norvegicus; experiment: Compound (10 uM) tested for percent inhibition of […] induced lipid peroxidation in rat liver microsomes; Range 80-60%
[3] = organism: Rattus norvegicus; experiment: Compound (10 uM) tested for percent inhibition of […] induced lipid peroxidation in rat liver microsomes; Range 85-54%

| Compound | Viability [1] [%] | inhibition [2] [%] | inhibition [3] [%] |
| --- | --- | --- | --- |
| COc1cc(/C=C/C(=O)CC(=O)/C=C/c2ccc(O)c(OC)c2)ccc1O [CURCUMIN] | 64 | 80 |  |
| COc1cc(/C=C/C(=O)CC(/C=C/c2ccc(O)c(OC)c2)=N/NC(N)=O)ccc1O | 26 |  | 85 |
